Here are results for 13 compounds from patent US12673945B2, “3-((8-((1H-pyrazol-4-yl)amino)imidazo[1,2-a]pyridin-3-yl)ethinyl)-n-phenylbenzamide derivative, method for preparing same, and pharmaceutical composition containing same as active ingredient for prevention or treatment of cancer” (DAEGU-GYEONGBUK MEDICAL INNOVATION FOUNDATION, priority 2020, dated 2026).

Holding throughout (type): cell-based
In assay [1] the test system is Parental (Ba/F3). The assay can be described thus: Ba/F3 cell proliferation inhibition. Particulars: BaF3; 72 hours, Cell Counting Kit-8. The procedure:
(§1) […] lymphocyte cells, Parental (Ba/F3) and T315I-Bcr-Abl (Ba/F3) were seeded in 96-well plates at the density of 1×10^4/90 μL/well. A culture solution containing 9 concentrations (0.015 to 100 μM) of each example compound serially diluted in 3 folds or DMSO (control) were added to the plate ([…]) to a final concentration of 0 to 10 μM. The plate was incubated in a 37° C. CO2 incubator for 72 hours.
(§2) After incubation for 72 hours, the plate treated with the compound was treated with Cell Counting Kit-8 (Dojindo Molecular Technologies, Inc) solution at the concentration of 10 μL/well, and then mixed well. Then, the plate was incubated in a CO2 incubator at 37° C. for 2 hours, and absorbance at 450 nm was measured with a microplate reader. Data were expressed as percentage compared to vehicle treated cells and GI50 values were calculated using GraphPad Prism 5.0 (GraphPad software Inc., San Diego) […].
On the technique in general: Tetrazolium assays rely on reduction of a dye to a coloured formazan, in cell work by metabolically active cells.

Assay [2] deals with T315I-Bcr-Abl (Ba/F3). As to the kind of experiment: Ba/F3 cell proliferation inhibition. Particulars: BaF3; 72 hours, Cell Counting Kit-8. The procedure: as §1, §2
Assay [3] has as its system KOPM28 cells. As to the kind of experiment: human CML cell proliferation inhibition. The conditions noted are these: 72 hours, Cell Counting Kit-8. The procedure:
(§3) In order to evaluate the therapeutic effect of the compound according to the present invention on chronic myelogenous leukemia (CML), the following experiment was performed, and the results are shown in Table 6 below. Inhibitory activity to Bcr-Abl kinase was evaluated through the experiment using TCCS and KOPM28 cells, and inhibitory activity to T315I-Bcr-Abl kinase was evaluated through the experiment using T315I-TCCS and T315I-KOPM28 cells.
(§4) Human chronic myelogenous leukemia (CML) cells used in the experiment were TCCS, T315I-TCCS, KOPM28 and T315I-KOPM28, and the four types of cells were provided by University of Yamanashi.
(§5) Four types of human CML cells were each seeded in 96-well plates at the density of 1×10^4/90 μL/well. A culture solution containing 9 concentrations (0.000256 to 100 μM) of each example compound serially diluted in 5 folds or DMSO (control) were added to the plate (10 μL/well) to a final concentration of 0 to 10 μM. The plate was incubated in a 37° C. CO2 incubator for 72 hours.
(§6) After incubation for 72 hours, the plate treated with the compound was treated with Cell Counting Kit-8 (Dojindo Molecular Technologies, Inc) solution at the concentration of 10 μL/well, and then mixed well. Then, the plate was incubated in a CO2 incubator at 37° C. for 2 hours, and absorbance at 450 nm was measured with a microplate reader. Data were expressed as percentage compared to vehicle treated cells and GI50 values were calculated using GraphPad Prism 8.0 (GraphPad software Inc., San Diego).

Assay [4] deals with T315I-KOPM28 cells. The assay can be described thus: human CML cell proliferation inhibition. Particulars: 72 hours, Cell Counting Kit-8. The procedure: as §3, §4, §5, §6
The subject of assay [5] is T315I-TCCS cells. The assay can be described thus: human CML cell proliferation inhibition. The conditions noted are these: 72 hours, Cell Counting Kit-8. The method, then:
as §3, §4, §5, §6

Assay [6] relates to TCCS cells. The assay can be described thus: human CML cell proliferation inhibition. The conditions noted are these: 72 hours, Cell Counting Kit-8. The procedure: as §3, §4, §5, §6

The structures appear in SMILES notation.

Regarding `Cc1cn(-c2cc(NC(=O)c3cc(F)c(C)c(C#Cc4cnc5c(Nc6cnn(C)c6)cccn45)c3)cc(C(C)(C)C#N)c2)cn1` [Example 2, N-(3-(2-cyanopropan-2-yl)-5-(4-methyl-1H-imidazol-1-yl)phenyl)-3-fluoro-4-methyl-5-((8-((1-methyl-1H-pyrazol-4-yl)amino)imidazo[1,2-a]pyridin-3-yl)ethynyl)benzamide], the GI50 in assay [1] is over 5000 nM; in assay [2], under 50 nM; in assay [3], under 10 nM; in assay [4], 100 nM; in assay [5], under 10 nM; in assay [6], under 10 nM.
Consider `Cc1cn(-c2cc(NC(=O)c3ccc(C)c(C#Cc4cnc5c(Nc6cnn(C)c6)cccn45)c3F)cc(C(C)(C)C#N)c2)cn1` [Example 3, N-(3-(2-cyanopropan-2-yl)-5-(4-methyl-1H-imidazol-1-yl)phenyl)-2-fluoro-4-methyl-3-((8-((1-methyl-1H-pyrazol-4-yl)amino)imidazo[1,2-a]pyridin-3-yl)ethynyl)benzamide], for which the GI50 in assay [1] is over 5000 nM; in assay [2], under 50 nM; in assay [3], under 10 nM; in assay [4], 100 nM; in assay [5] it was 100 nM; in assay [6], under 10 nM.
With `Cc1cn(-c2cc(NC(=O)c3cc(F)c(C)c(C#Cc4cnc5c(Nc6cnn(C)c6)cccn45)c3)cc(C(F)(F)F)c2)cn1` [Example 5, 3-fluoro-4-methyl-N-(3-(4-methyl-1H-imidazol-1-yl)-5-(trifluoromethyl)phenyl)-5-((8-((1-methyl-1H-pyrazol-4-yl)amino)imidazo[1,2-a]pyridin-3-yl)ethynyl)benzamide], the GI50 is over 5000 nM in assay [1]; under 50 nM in assay [2]; 100 nM in assay [3]; 100 nM in assay [4]; 100 nM in assay [5]; 100 nM in assay [6].
`Cc1cn(-c2cc(NC(=O)c3ccc(C)c(C#Cc4cnc5c(Nc6cnn(C)c6)cccn45)c3F)cc(C(F)(F)F)c2)cn1` [Example 6, 2-fluoro-4-methyl-N-(3-(4-methyl-1H-imidazol-1-yl)-5-(trifluoromethyl)phenyl)-3-((8-((1-methyl-1H-pyrazol-4-yl)amino)imidazo[1,2-a]pyridin-3-yl)ethynyl)benzamide]: the GI50 in assay [1] was over 5000 nM; in assay [2] it was 50 to 500 nM; in assay [3], 100 nM; in assay [4] it was over 100 nM; in assay [5] it was 100 nM; in assay [6] it was under 10 nM.
For the compound `Cc1cc(F)c(C(=O)Nc2cc(Oc3ccncc3)cc(C(F)(F)F)c2)cc1C#Cc1cnc2c(Nc3cnn(C)c3)cccn12` [Example 7, 2-fluoro-4-methyl-5-((8-((1-methyl-1H-pyrazol-4-yl)amino)imidazo[1,2-a]pyridin-3-yl)ethynyl)-N-(3-(pyridin-4-yloxy)-5-(trifluoromethyl)phenyl)benzamide], the GI50 in assay [1] is over 5000 nM; in assay [2], under 50 nM; in assay [3], under 10 nM; in assay [4] it was under 10 nM; in assay [5], under 10 nM; in assay [6] it was under 10 nM.
`Cc1c(F)cc(C(=O)Nc2cc(Oc3ccncc3)cc(C(F)(F)F)c2)cc1C#Cc1cnc2c(Nc3cnn(C)c3)cccn12` [Example 8, 3-fluoro-4-methyl-5-((8-((1-methyl-1H-pyrazol-4-yl)amino)imidazo[1,2-a]pyridin-3-yl)ethynyl)-N-(3-(pyridin-4-yloxy)-5-(trifluoromethyl)phenyl)benzamide]: the GI50 in assay [1] was over 5000 nM; in assay [2] it was under 50 nM; in assay [3], under 10 nM; in assay [4], 100 nM; in assay [5], 100 nM; in assay [6], under 10 nM.
`Cc1ccc(C(=O)Nc2cc(Oc3ccncc3)cc(C(F)(F)F)c2)c(F)c1C#Cc1cnc2c(Nc3cnn(C)c3)cccn12` [Example 9, 2-fluoro-4-methyl-3-((8-((1-methyl-1H-pyrazol-4-yl)amino)imidazo[1,2-a]pyridin-3-yl)ethynyl)-N-(3-(pyridin-4-yloxy)-5-(trifluoromethyl)phenyl)benzamide]: the 50% growth inhibitory concentration (GI50) in assay [1] was over 5000 nM; in assay [2], under 50 nM; in assay [3], under 10 nM; in assay [4], 100 nM; in assay [5] it was 100 nM; in assay [6], under 10 nM.
As to `Cc1cc(F)c(C(=O)Nc2cc(CN3CCN(CCO)CC3)cc(C(C)(C)C#N)c2)cc1C#Cc1cnc2c(Nc3cnn(C)c3)cccn12` [Example 10, N-(3-(2-cyanopropan-2-yl)-5-((4-(2-hydroxyethyl)piperazin-1-yl)methyl)phenyl)-2-fluoro-4-methyl-5-((8-((1-methyl-1H-pyrazol-4-yl)amino)imidazo[1,2-a]pyridin-3-yl)ethynyl)benzamide], the GI50 in assay [1] was 500 to 5000 nM; in assay [2], under 50 nM; in assay [3] it was under 10 nM; in assay [4], 100 nM; in assay [5], 100 nM; in assay [6], under 10 nM.
`Cc1c(F)cc(C(=O)Nc2cc(CN3CCN(CCO)CC3)cc(C(C)(C)C#N)c2)cc1C#Cc1cnc2c(Nc3cnn(C)c3)cccn12` [Example 11, N-(3-(2-cyanopropan-2-yl)-5-((4-(2-hydroxyethyl)piperazin-1-yl)methyl)phenyl)-3-fluoro-4-methyl-5-((8-((1-methyl-1H-pyrazol-4-yl)amino)imidazo[1,2-a]pyridin-3-yl)ethynyl)benzamide]: the GI50 in assay [1] was over 5000 nM; in assay [2] it was under 50 nM; in assay [3] it was under 10 nM; in assay [4] it was 100 nM; in assay [5], under 10 nM; in assay [6], under 10 nM.
As to `Cc1ccc(C(=O)Nc2cc(CN3CCN(CCO)CC3)cc(C(C)(C)C#N)c2)c(F)c1C#Cc1cnc2c(Nc3cnn(C)c3)cccn12` [Example 12, N-(3-(2-cyanopropan-2-yl)-5-((4-(2-hydroxyethyl)piperazin-1-yl)methyl)phenyl)-2-fluoro-4-methyl-3-((8-((1-methyl-1H-pyrazol-4-yl)amino)imidazo[1,2-a]pyridin-3-yl)ethynyl)benzamide], the GI50 was over 5000 nM in assay [1]; 50 to 500 nM in assay [2]; under 10 nM in assay [3]; over 100 nM in assay [4]; 100 nM in assay [5]; under 10 nM in assay [6].
As to `Cc1cn(-c2cc(NC(=O)c3cc(C#Cc4cnc5c(Nc6cnn(C)c6)cccn45)c(C)cc3Cl)cc(C(C)(C)C#N)c2)cn1` [Example 13, 2-chloro-N-(3-(2-cyanopropan-2-yl)-5-(4-methyl-1H-imidazol-1-yl)phenyl)-4-methyl-5-((8-((1-methyl-1H-pyrazol-4-yl)amino)imidazo[1,2-a]pyridin-3-yl)ethynyl)benzamide], the GI50 is over 5000 nM in assay [1]; under 50 nM in assay [2]; under 10 nM in assay [3]; 100 nM in assay [4]; under 10 nM in assay [5]; under 10 nM in assay [6].
With `Cc1cn(-c2cc(NC(=O)c3cc(C#Cc4cnc5c(Nc6cnn(C)c6)cccn45)c(C)cc3Cl)cc(C(F)(F)F)c2)cn1` [Example 14, 2-chloro-4-methyl-N-(3-(4-methyl-1H-imidazol-1-yl)-5-(trifluoromethyl)phenyl)-5-((8-((1-methyl-1H-pyrazol-4-yl)amino)imidazo[1,2-a]pyridin-3-yl)ethynyl)benzamide], the GI50 in assay [1] was over 5000 nM; in assay [2] it was under 50 nM; in assay [3] it was under 10 nM; in assay [4], 100 nM; in assay [5] it was 100 nM; in assay [6], under 10 nM.
Take `Cc1cc(Cl)c(C(=O)Nc2cc(Oc3ccncc3)cc(C(F)(F)F)c2)cc1C#Cc1cnc2c(Nc3cnn(C)c3)cccn12` [Example 15, 2-chloro-4-methyl-5-((8-((1-methyl-1H-pyrazol-4-yl)amino)imidazo[1,2-a]pyridin-3-yl)ethynyl)-N-(3-(pyridin-4-yloxy)-5-(trifluoromethyl)phenyl)benzamide]: the GI50 in assay [1] was over 5000 nM; in assay [2], under 50 nM; in assay [3], under 10 nM; in assay [4], under 10 nM; in assay [5], under 10 nM; in assay [6] it was under 10 nM.

In general, GI50 refers to the concentration at which growth is held to half of that of the control.
